The values below come from patent US20040191327A1, “Method of treating and/or preventing asthma using natural compound luteolin” (Council of Scientific and Industrial Research, priority 2003, published 2004).

Several values for one entry are separate records, joined by “and”; a condition that tells them apart may be missing. Identical values can stand only once. Marks after values point to notes of the source that are not given here.

One test relates to IL-4. The test is described as follows: IL-4 level in BALF by ELISA. The format is in vivo, mouse. To be noted: mean±SEM, n=6. The method, then:
(§1) After testing the compound for the preventive as well as for therapeutic effects in intact conscious mice, mice were sacrificed for collecting the blood and bronchoalveolar lavage (BAL) fluid to measure the levels of IgE, cytokines IL-4, IL-5 and IFN-γ. Ovalbumin specific IgE levels in the sera and the levels of IL-4, IL-5 and IFN-γ in the BAL fluid were measured by enzyme linked ImmunoSorbent assay (ELISA) kits.
(§2) Experiments were performed with six groups of mice (n=6) as described in FIG. 3 legend and the levels of IFN-γ, IL-4 and IL-5 were measured in the BALF. The values are a mean±SEM of six mice in each group. Mann Whitney U test was used to determine the significant differences between the sensitized- and Luteolin treated groups. * p <0.05, ** p<0.01. ‘a’ denotes treatment during sensitization; ‘b’ denotes treatment after sensitization.
(§3) Mice were immunized/sensitized with or without (sham-sensitized) 0.2 ml of 10 μg ovalbumin (Sigma Chemicals Co. St Louis, Mo., USA) and 2 mg aluminum hydroxide intraperitoneally on days 0,7 and 14 using a modified protocol previously described by Sakai et al (FIG. 2). Five days after the final i.p injection, the mice were subjected to aerosolized OVA (5%) or phosphate buffered saline (PBS) (for sham-sensitized group) inhalation for 20 minutes daily beginning from day 19 to day 23 (FIG. 2). Mice were placed in a plexiglas chamber (20×20×20 cm dimensions) and exposed to an aerosol generated from a nebulizer (de Vilbiss, USA) with airflow of 41/min.
(§4) To study the preventive effect, Luteolin (dissolved in 50% hydro-alcohol) (Sigma Chemicals Co. St Louis, Mo., USA) (0.1, 1.0, and 10.0 mg/kg body weight, 20 □| volume) or vehicle (i.e., 50% hydro-alcohol) was administered orally to each group of mice daily, starting from the first day of sensitization (FIG. 2A). To study the curative effect, mice were first sensitized as described before (Example 1) followed by oral Luteolin (1.0 mg/kg body weight) treatment daily from day 26 to 32 (FIG. 2B).
(§5) To investigate the levels of IL-4 and IFN-[…] in the BALF, we measured the cytokine levels by ELISA as per manufacturer's protocol, and compared between the different groups. […] In the Luteolin-treated group, there was an increase in the ratio of IFN-γ/IL-4 (25.8±2.7, 15.5±1.3, 13.2±2.5 following doses of 0.1, 1.0 and 10.0 mg/kg Luteolin, respectively as compared to 0.48±0.1 in sensitized, vehicle treated mice) (p<0.01) (Table 1). […] This increase in the IFN-γ/IL-4 ratio was due to the increase in the IFN-γ levels. We also measured the concentration of IL-5 in the BALF by ELISA in the different groups (Table 1). […]
In general terms: ELISA stands for enzyme-linked immunosorbent assay.

The test system of test [1] is OVA-sensitized mice. Briefly: Airway reactivity to methacholine (MCh PD35) in mouse model of asthma. It counts as in vivo. The method, then: Protocol A: The mice were given three i.p. Injections of 10 μg ovalbumin adsorbed on 2 mg alum on 0, 7 and 14 days and then subjected to OVA aerosol inhalation for five consecutive days from 19th to 23rd day of the experiment. On 24th day SGaw measurements were performed after OVA challenge in the plethysmograph and airway reactivity to methacholine was measured after 24 hours. In case of curative study (Protocol B), sensitized mice were fed with 1 mg/kg body weight of Luteolin for one week (days 26-32) and the effects on SGaw and airway reactivity were evaluated.
as §3, §4
Airway reactivity to methacholine was determined by measuring the concentration of inhaled methacholine that produced 35% fall in SGaw (MCh PD35) in intact mouse sitting in the body plethysmograph. Aerosol of different concentrations of methacholine (3.1, 6.25, 12.5, 50, 100 mg/ml) were given for 60 seconds. MCh PD35 values were determined in sham-sensitized, sensitized and Luteolin treated mice during and after sensitization. […] Treatment with Luteolin (0.1, 1.0 and 10.0 mg/kg during sensitization) markedly attenuated the development of airway hyperreactivity to methacholine. MCh PD35 values increased following Luteolin treatment to 72.1±1.9, 42.4±4.2 and 10.9±4.8 mg/ml, respectively (p<0.01).

A further test relates to IFN-γ. Briefly: IFN-γ level in BALF by ELISA. The format is in vivo, mouse. To be noted: mean±SEM, n=6. The method, then: as §1, §2, §3, §4, §5
Test [2] deals with OVA-sensitized mice. The test is described as follows: Mouse model of asthma, effective oral dose. It counts as in vivo. The method, then:
In this context, Luteolin was tested on mouse model of asthma. Mice were sensitized with intraperitoneal and aerosol inhalation of OVA to develop the characteristic features of asthma such as allergen induced early airway response (EAR) and late airway response (LAR). These asthmatic features were characterized by measuring airway calibre in the term of specific airway conductance (SGaw) by a non-invasive technique, dual-chamber whole body plethysmography. After developing the characteristic features (EAR and LAR) in mouse, the compound, Luteolin was given orally during whole sensitization period to test the preventive effect on the development of asthmatic features. To examine the therapeutic effect of Luteolin on the asthmatic features, it was fed for one week to mice after sensitization and confirming their asthmatic features.
as §4

The next test deals with OVA-specific IgE. The test is described as follows: OVA-specific IgE levels in serum by ELISA. It counts as in vivo, mouse. The method, then: as §1, §3, §4
OVA-specific IgE levels in the serum were measured by enzyme linked ImmunoSorbent assay (ELISA), To investigate the effect of Luteolin on serum IgE levels, we compared the levels of the OVA-specific IgE in serum of mice treated with vehicle or with Luteolin (0.1, 1.0 and 10.0 mg/kg) during sensitization and in sham-sensitized mice.

The subject of the next test is IL-5. The test is described as follows: IL-5 level in BALF by ELISA. The format is in vivo, mouse. To be noted: mean±SEM. The method, then:
as §1, §2, §3, §4, §5

Test [3] relates to OVA-sensitized mice. Briefly: OVA-induced airway constriction (fall of specific airway conductance, SGaw) in mouse model of asthma. It counts as in vivo. The method, then:
Protocol A: The mice were given three i.p. Injections of 10 μg ovalbumin adsorbed on 2 mg alum on 0, 7 and 14 days and then subjected to OVA aerosol inhalation for five consecutive days from 19th to 23rd day of the experiment. On 24th day SGaw measurements were performed after OVA challenge in the plethysmograph and airway reactivity to methacholine was measured after 24 hours. In case of curative study (Protocol B), sensitized mice were fed with 1 mg/kg body weight of Luteolin for one week (days 26-32) and the effects on SGaw and airway reactivity were evaluated. Mice were immunized/sensitized with or without (sham-sensitized) 0.2 ml of 10 μg ovalbumin (Sigma Chemicals Co. St Louis, Mo., USA) and 2 mg aluminum hydroxide intraperitoneally on days 0,7 and 14 using a modified protocol previously described by Sakai et al (FIG. 2). Five days after the final i.p injection, the mice were subjected to aerosolized OVA (5%) or phosphate buffered saline (PBS) (for sham-sensitized group) inhalation for 20 minutes daily beginning from day 19 to day 23 (FIG. 2). Mice were placed in a plexiglas chamber (20×20×20 cm dimensions) and exposed to an aerosol generated from a nebulizer (de Vilbiss, USA) with airflow of 41/min. To study the preventive effect, Luteolin (dissolved in 50% hydro-alcohol) (Sigma Chemicals Co. St Louis, Mo., USA) (0.1, 1.0, and 10.0 mg/kg body weight, 20 □| volume) or vehicle (i.e., 50% hydro-alcohol) was administered orally to each group of mice daily, starting from the first day of sensitization (FIG. 2A). […] Airway calibre was measured in the term of specific airway conductance (SGaw) using a dual-chamber whole body plethysmograph similar to the method for guinea pigs (Agrawal, 1981) with some modifications. […] The value of SGaw was calculated as described by Agrawal (1981). Airway constriction of mice was determined in terms of fall of SGaw due to OVA aerosol challenge. SGaw was measured as described in Example 3. […]

[4] abbreviates: 10.0 mg/kg during sensitization.
[5] abbreviates: 1.0 mg/kg oral during sensitization.
Setting [6] is: 1.0 mg/kg oral for one week after sensitization.
[7] abbreviates: 10.0 mg/kg oral during sensitization.

On to `O=c1cc(-c2ccc(O)c(O)c2)oc2cc(O)cc(O)c12` [Luteolin], for which the IL-4 in the test on IL-4 (0.1 mg/kg during sensitization) stood at 136 ± 4.0 pg/mL; in the test with IL-4 (1.0 mg/kg after sensitization) it was 130 ± 5.0 pg/mL; in the test on IL-4 (1.0 mg/kg during sensitization), 169 ± 13.9 pg/mL; with IL-4 (setting [4]), 128 ± 8.8 pg/mL. Also, the “MCh PD35” value with OVA-sensitized mice [1] (0.1 mg/kg oral during sensitization, sensitized 1.3±0.5, normal 97±1.0) is 72.1 ± 1.9 mg/mL; with OVA-sensitized mice [1] (setting [5]) it was 42.4 ± 4.2 mg/mL; in the test with OVA-sensitized mice [1] (setting [6]) it was “increased significantly”; in the test with OVA-sensitized mice [1] (setting [7]), 10.9 ± 4.8 mg/mL. Moreover, the IFN-γ in the test with IFN-γ (0.1 mg/kg during sensitization) is given as 3533 ± 427** pg/ml; in the test on IFN-γ (1.0 mg/kg after sensitization), 2067 ± 233.3** pg/ml; in the test on IFN-γ (1.0 mg/kg during sensitization), 2652 ± 114.3** pg/ml; in the test on IFN-γ (setting [4]), 1247 ± 412.5** pg/ml. Also, the effective dose in the test with OVA-sensitized mice [2] is recorded as 1 mg/kg body weight. In addition, the “OVA-specific serum IgE level” value came to 0.74±0.4 in the test with OVA-specific IgE (0.1 mg/kg oral during sensitization, sensitized vehicle 3.3±0.4); 0.93±0.03 in the test with OVA-specific IgE (setting [5]); 2.07±1 with OVA-specific IgE (1.0 mg/kg oral for a week after sensitization); 0.97±0.07 in the test with OVA-specific IgE (setting [7]). Besides, the IL-5 in the test on IL-5 (0.1 mg/kg during sensitization, n=6, 0.1 mg/kg) is 73.3±13.4 pg/ml and 73 ± 13.4* pg/ml; in the test on IL-5 (1.0 mg/kg after sensitization (one week), n=6, 1 mg/kg), 43.7±2.3 pg/ml and 44 ± 2.3* pg/ml; with IL-5 (1.0 mg/kg during sensitization, n=6, 1 mg/kg), 43.3±3.5 pg/ml and 43 ± 3.5* pg/ml; in the test on IL-5 (10.0 mg/kg during sensitization, n=6), 235 ± 66.4 pg/mL. The “decrease in SGaw after OVA challenge” value with OVA-sensitized mice [3] (0.1 mg/kg oral daily during sensitization, sensitized vehicle mice 43% fall) is listed as 7%. For the same compound, the “OVA-induced decrease in SGaw, curative effect” value in the test on OVA-sensitized mice [3] (setting [6]) is recorded as “reverse OVA-induced decrease in SGaw”. For the same compound, the “reduction of OVA-induced decrease in SGaw at higher doses” value in the test with OVA-sensitized mice [3] (1.0 and 10.0 mg/kg oral daily during sensitization, versus 0.1 mg/kg) is on record as “did not show any greater reduction”.
